Experiments:
BAX [1] = test: BAX oligomerization / activation in mitochondria of IL-3 starved FL5.12-BCL-2 cells; assay type: biochemical, murine
Method: Mitochondria were isolated from wt FL5.12 cells and FL5.12-BCL-2 cells in the presence of IL-3, and from FL5.12-BCL-2 cells following 24 hours of IL-3 deprivation. […] Mitochondrial pellets were subjected to chemical crosslinking as previously described (Letai et al., 2002).
This model predicts that BCL-2 acts upstream of BAX activation by intercepting activator BH3 molecules. To test this prediction, in FIG. 6E, immunoprecipitation was performed with an antibody that recognizes only the activated form of BAX which exposes an N-terminus epitope (Desagher ct al., 1999; Hsu and You le, 1997). wt or BCL-2 expressing FL5.12 cells were exposed to IL-3 withdrawal as indicated.

H146 and H1963 = details: in vitro and murine xenograft; cited from earlier work
CLL cells = test: Annexin-V death assay of freshly isolated primary CLL cells; assay type: cell-based, human; details: five samples
BAX [2] = test: BAX oligomerization in CLL cells; assay type: cell-based, human; details: 4 hours
Method: 10^7 freshly isolated CLL cells were incubated with DMSO, 10 nM, 100 nM, or 1 μM ABT-737 or negative control enantiomer for 4 hours, % dead assessed by Annexin-V staining and FACS analysis, then treated with 0.3% saponin and 10 μM BMH for 30 minutes on ice. Cells were then lysed, loaded onto a 10% BISTris polyacrlyamide gel, transferred, and immunoblotted for BAX.

CN(C)CC[C@H](CSc1ccccc1)Nc1ccc(S(=O)(=O)NC(=O)c2ccc(N3CCN(Cc4ccccc4-c4ccc(Cl)cc4)CC3)cc2)cc1[N+](=O)[O-] [ABT-737]
cytochrome c release and BAX activation (BAX [1]; mitochondria from IL-3 starved cells): restored cytochrome c release and BAX activation | BAX oligomerization (BAX [1]; peptides 30 uM, ABT-737 10 uM, 35 minutes): results in BAX oligomerization | sensitivity of H146 and H1963 to treatment (H146 and H1963): sensitive to treatment with ABT-737 in vitro and in an in vivo murine xenograft model | response of CLL cells after four hours (CLL cells): responded similarly compared to 48-hour treatment | oligomerization of BAX (BAX [2]): oligomerization of BAX within four hours

— patent publication US11215608B2, “Methods of determining cellular chemosensitivity” (Dana-Farber Cancer Institute, Inc., priority 2006, dated 2022)
